{"source": "patent US10618929B2", "about": "“3-substituted 5-amino-6H-thiazolo[4,5-D]pyrimidine-2, 7-dione compounds for the treatment and prophylaxis of virus infection” (Hoffmann-La Roche Inc., priority 2014, dated 2020)", "data": [{"tested_on": "human hepatocytes", "test": "Metabolic conversion of prodrugs to active forms in human hepatocytes", "format": "in vitro ADME", "conditions": "active metabolites Example 1-A, Example 14-A and penciclovir, respectively", "source_text": "A study was undertaken to evaluate the metabolic conversion of prodrugs, formula (II) or formula (IIa), to compounds of formula (I) or formula (Ia) of the present invention. The produgs, formula (II) or formula (IIa), can be metabolized to the active compound of formula (I) or formula (Ia) and other compounds of the invention in the body if they are served as prodrugs. Hepatocytes are often used to assess the degree of metabolic conversion of prodrugs in the body of animal or human. A study was undertaken to evaluate the metabolic conversion of prodrugs, Example 2-A, Example 3-A, Example 4-A, Example 16-A and Example 17-A, to the corresponding active forms, Example 1-A and Example 14-A, in the presence of human hepatocytes. The formation of active forms, Example 1-A and Example 14-A, were monitored in the study. For comparison, the metabolic conversion of famciclovir to penciclovir was also assessed. Cryopreserved hepatocytes plating medium (Cat. #: PY-HMD-01) was purchased from RILD Research Institute for Liver Diseases (Shanghai) Co. Ltd. Cryopreserved human hepatocyte (Cat. #: X008005, Lot #:VRR) was purchased from In Vitro Technologies (Baltimore, Md.). The stock hepatocyte suspension was prepared from cryopreserved hepatocytes in plating medium at the concentration of 1.8×10^6 cells/mL. […] Reaction suspensions were prepared in 24-well cell culture plate by mixing 200 μL of hepatocytes suspension (Cyno or human) and 200 μL of working solution. The final incubation contained 0.9×10^6 cells/mL and 50 μM compound. The above mixtures were incubated at 37° C. in a humidified 5% CO2 atmosphere, with a 150 rpm shaking. After 180 min of incubation, 200 μL of the incubation mixture was transferred to 1.5 mL tube and quenched with 400 μL stop solution (ice-cold acetonitrile with 0.2 μM Tolbutamide as internal standard). The samples were centrifuged at 12000 rpm for 10 minutes and the resultant supernatants were subjected to LC-MS/MS analysis. The calibration curves were prepared in the following way. To a 200 μL of cell suspension (cell density of 1.8 million cells/mL), 198 μL of hepatocyte plating medium and 2 μL of the appropriate concentration of the compound in DMSO were added. Samples were mixed thoroughly and 200 μL of the mixture was transferred to 400 uL of the stop solution (see above). […] The compounds were quantified on an API5500 […] instrument in the ESI-Positive MRM mode.", "values": [{"smiles": "CC(=O)OC(C1CC1)[C@@H]1C[C@@H](O)[C@H](n2c(=O)sc3cnc(N)nc32)O1", "note": "(single isomer, unassigned) [Example 16-A]", "Metabolic conversion of prodrug to active metabolite": "metabolized to yield the corresponding active metabolites"}, {"smiles": "CC(=O)OCC(CCn1cnc2cnc(N)nc21)COC(C)=O", "note": "[Famciclovir, famciclovir, reference compound]", "Metabolic conversion of prodrug to active metabolite": "metabolized to yield the corresponding active metabolites"}, {"smiles": "CCC(O)[C@@H]1C[C@@H](O)[C@H](n2c(=O)sc3cnc(N)nc32)O1", "note": "(single isomer, unassigned) [Example 2-A]", "Metabolic conversion of prodrug to active metabolite": "metabolized to yield the corresponding active metabolites"}, {"smiles": "Nc1ncc2sc(=O)n([C@@H]3O[C@H](C(O)C4CC4)C[C@H]3O)c2n1", "note": "(single isomer, unassigned) [Example 17-A]", "Metabolic conversion of prodrug to active metabolite": "metabolized to yield the corresponding active metabolites"}, {"smiles": "CCC(O)[C@@H]1C[C@@H](OC(C)=O)[C@H](n2c(=O)sc3cnc(N)nc32)O1", "note": "(single isomer, unassigned) [Example 3-A]", "Metabolic conversion of prodrug to active metabolite": "metabolized to yield the corresponding active metabolites"}, {"smiles": "CCC(OC(C)=O)[C@@H]1C[C@@H](O)[C@H](n2c(=O)sc3cnc(N)nc32)O1", "note": "(single isomer, unassigned) [Example 4-A]", "Metabolic conversion of prodrug to active metabolite": "metabolized to yield the corresponding active metabolites"}]}, {"tested_on": "murine peripheral blood mononuclear cells (PBMC)", "test": "In vitro cytokine induction in murine PBMC (multiplex assay)", "conditions": "2 to 10 μM, 24 hours, supernatant, dose-dependent", "description": "50 μL of cell culture medium was collected and analyzed with a 36plex Procarta multiplex kit (ebioscience EPX360-26092-901, eBioscience), which measured the levels of 15 cytokine analytes, following the manufacturer's instruction.", "values": [{"smiles": "CCC(O)[C@@H]1C[C@@H](O)[C@H](n2c(=O)sc3c(=O)[nH]c(N)nc32)O1", "note": "(single isomer, unassigned) [Example 1-A]", "Cytokine induction in murine PBMC": "high levels of IFNα, IP10, TNFα, and IL-6 were found induced"}]}]}
